Consider eight compounds from patent publication US10513521B2, “Compositions and methods for inhibiting BMP” (The Brigham and Women's Hospital, Inc., priority 2014, dated 2019).

Experiment [1] has as its target T1, ALK2 (Mus musculus, UniProt P37172).
T1 construct: The C2C12 cell line was selected for the measurement of ALK2 activity using BMP6 as the agonist; host or cells: C2C12
T1 sequence (P37172 21-509): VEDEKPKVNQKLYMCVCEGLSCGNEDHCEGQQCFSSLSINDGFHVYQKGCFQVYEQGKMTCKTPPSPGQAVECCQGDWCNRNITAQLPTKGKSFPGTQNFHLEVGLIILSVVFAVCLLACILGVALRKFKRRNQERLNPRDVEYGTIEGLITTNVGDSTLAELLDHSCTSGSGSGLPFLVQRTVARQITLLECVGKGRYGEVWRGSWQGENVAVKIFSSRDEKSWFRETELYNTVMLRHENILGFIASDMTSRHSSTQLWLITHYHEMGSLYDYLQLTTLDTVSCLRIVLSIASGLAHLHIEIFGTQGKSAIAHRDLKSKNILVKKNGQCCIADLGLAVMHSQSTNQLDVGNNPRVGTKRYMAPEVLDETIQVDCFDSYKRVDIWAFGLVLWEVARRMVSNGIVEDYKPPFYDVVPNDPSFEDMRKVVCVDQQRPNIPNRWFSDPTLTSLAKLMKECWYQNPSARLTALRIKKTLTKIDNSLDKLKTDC
The experiment is described as follows: In-cell Western ALK2 assay (C2C12 cells, BMP6 as agonist). Particulars: read-out: BMP6 ICW. In kind it is cell-based. The source says: 3. In-Cell Western ALK1 and ALK2 Assays in 384-Well Plate Format.
We also optimized cell-based In-cell Western assays for measurements of ALK1 and ALK2 activities that were used to determine compound activities in these two kinases. The cell lines and agonists used were same as described in above cell-based HTRF ALK1 and ALK2 assays. The initial cell plating and compound treatment were also same. The main difference is the detection of phosphorylation status of SMAD1. In t-cell Western assay, the cells were fixed and phosphorylation status of SMAD1 was detected by the ELISA instead of using the HTRF assay kit in above assay.
HyClone Fetal Bovine Serum was obtained from GE healthcare life sciences (Logan, Utah). BMP6 and BMP9 were purchased from R&D System (R&D). Anti-P-SMAD 1/5/8 rabbit mAb and anti-rabbit IgG, HRP-Linked antibody were purchased from Cell Signaling Technology (Danvers, Mass.). BioFX Chemiluminescent Ultra-Sensitive HRP Microwell Substrate ECL Reagent was obtained from SurModics (Edina, Minn.). The compound plates and the white solid MB assay plates were from Greiner Bio-one (Monroe, N.C.).
Similarly as described in above HTRF cell-based assay, this assay was performed in 384 well plate format. […] Pre-starved cells were then plated in 384 well plate in the starvation medium (containing in 0.1% FBS). After 4 hours, compound dilutions in DMSO were added to the assay plate and incubated for 30 minutes. The assay plate was then added with BMP6 for C2C12 cells or BMP9 for BAOEC cells and incubated for 30 minutes.
The cells were washed in the plate washer with PBS and blocked with 2% BSA in PBS for 1 h at room temperature on the rotator. After removing the blocking reagent, the cells were incubated with the anti-p-SMAD1 antibody in 2% BSA in PBS for overnight at 4° C. on rotator. The cells were washed with PBS in the plate washer and incubated with HRP conjugated second antibody in 2% BSA in PBS for 1 hour at room temperature. After a cell wash with PBS, ECL detection reagent was added and the plate was read in the luminesce mode in the ViewLux plate reader.

A further experiment addresses ALK1 (Homo sapiens, UniProt P37023). The experiment is described as follows: TR-FRET enzymatic ALK kinase assay, ALK1. (In TR-FRET formats the signal depends on donor and acceptor labels being close together.)
Experiment [2] deals with T2, ALK2 (Homo sapiens, UniProt Q04771).
T2 sequence (Q04771 21-509): T1 sequence (P37172 21-509) with V1M, Q10P, I121L, E162D, S310P
The experiment is described as follows: TR-FRET enzymatic ALK kinase assay, ALK2.

The next experiment addresses ALK3 (Homo sapiens, UniProt P36894). The experiment is described as follows: TR-FRET enzymatic ALK kinase assay, ALK3.
The target of another experiment is T3, ALK4 (Homo sapiens, UniProt P36896).
T3 sequence (P36896 24-505): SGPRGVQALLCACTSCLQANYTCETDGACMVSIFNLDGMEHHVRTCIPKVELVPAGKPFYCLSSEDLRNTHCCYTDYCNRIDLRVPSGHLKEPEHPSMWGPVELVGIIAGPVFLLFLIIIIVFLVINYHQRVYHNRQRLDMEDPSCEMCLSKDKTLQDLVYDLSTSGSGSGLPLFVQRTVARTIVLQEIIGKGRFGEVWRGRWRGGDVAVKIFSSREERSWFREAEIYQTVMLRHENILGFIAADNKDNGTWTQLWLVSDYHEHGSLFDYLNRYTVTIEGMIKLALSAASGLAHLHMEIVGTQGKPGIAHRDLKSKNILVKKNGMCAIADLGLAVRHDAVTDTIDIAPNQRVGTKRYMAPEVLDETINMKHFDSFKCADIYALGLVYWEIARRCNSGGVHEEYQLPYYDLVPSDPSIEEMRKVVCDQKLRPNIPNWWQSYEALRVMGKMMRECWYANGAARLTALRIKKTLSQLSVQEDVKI
The experiment is described as follows: TR-FRET enzymatic ALK kinase assay, ALK4.

Another experiment concerns the target T4, ALK5 (Homo sapiens, UniProt P36897).
T4 sequence (P36897 34-503): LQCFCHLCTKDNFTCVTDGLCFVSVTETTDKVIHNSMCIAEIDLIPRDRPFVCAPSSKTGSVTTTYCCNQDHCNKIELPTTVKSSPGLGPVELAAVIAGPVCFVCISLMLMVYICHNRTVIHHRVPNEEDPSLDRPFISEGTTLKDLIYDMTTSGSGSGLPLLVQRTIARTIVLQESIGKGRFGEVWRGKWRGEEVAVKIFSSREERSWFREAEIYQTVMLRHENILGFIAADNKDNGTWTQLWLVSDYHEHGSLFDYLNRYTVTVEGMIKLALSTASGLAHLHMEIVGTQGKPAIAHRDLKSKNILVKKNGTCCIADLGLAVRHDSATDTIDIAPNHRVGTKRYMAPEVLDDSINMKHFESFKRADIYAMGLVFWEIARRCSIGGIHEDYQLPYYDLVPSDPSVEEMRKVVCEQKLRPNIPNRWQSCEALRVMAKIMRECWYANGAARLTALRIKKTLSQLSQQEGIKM
The experiment is described as follows: TR-FRET enzymatic ALK kinase assay, ALK5.

Another experiment has as its target ALK6 (Homo sapiens, UniProt O00238). The experiment is described as follows: TR-FRET enzymatic ALK kinase assay, ALK6.
In experiment [3] the target is T1, ALK2. The experiment is described as follows: HTRF pSMAD1 cell-based ALK2 assay (C2C12 cells, BMP6 as agonist). Particulars: cell-based assay, BMP6; read-out: Cell IC50 BMP6. Put shortly: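 Cells pre-starved, plated in 0.1% FBS medium for 4 h, compound added for 30 min, then stimulated 30 min with BMP9 (BAOEC) or BMP6 (C2C12). Phospho-SMAD1 measured by HTRF after overnight room-temperature detection incubation.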

The nature of experiment [4]: Cell-based assay, TGFb1 (Cell IC50).

Structures are written as SMILES. Positions count from the first letter of the chain named. Several values for one entry are separate records, joined by “and”; a condition that tells them apart may be missing. Identical values can stand only once.

Sequence of ALK1 (P37023 22-503): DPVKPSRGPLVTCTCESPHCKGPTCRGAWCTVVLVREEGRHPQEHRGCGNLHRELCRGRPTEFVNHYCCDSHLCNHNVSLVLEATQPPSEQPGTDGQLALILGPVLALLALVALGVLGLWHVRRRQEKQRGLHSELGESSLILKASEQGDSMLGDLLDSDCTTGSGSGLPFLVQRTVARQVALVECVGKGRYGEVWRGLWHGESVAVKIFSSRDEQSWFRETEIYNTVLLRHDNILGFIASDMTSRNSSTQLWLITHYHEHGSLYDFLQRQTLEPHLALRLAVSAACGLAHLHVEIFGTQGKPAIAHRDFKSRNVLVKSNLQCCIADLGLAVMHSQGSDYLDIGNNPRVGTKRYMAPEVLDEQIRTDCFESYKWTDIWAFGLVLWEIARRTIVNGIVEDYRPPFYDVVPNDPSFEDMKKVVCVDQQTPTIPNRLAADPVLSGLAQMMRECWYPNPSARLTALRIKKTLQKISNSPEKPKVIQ
Sequence of ALK6 (O00238 14-502): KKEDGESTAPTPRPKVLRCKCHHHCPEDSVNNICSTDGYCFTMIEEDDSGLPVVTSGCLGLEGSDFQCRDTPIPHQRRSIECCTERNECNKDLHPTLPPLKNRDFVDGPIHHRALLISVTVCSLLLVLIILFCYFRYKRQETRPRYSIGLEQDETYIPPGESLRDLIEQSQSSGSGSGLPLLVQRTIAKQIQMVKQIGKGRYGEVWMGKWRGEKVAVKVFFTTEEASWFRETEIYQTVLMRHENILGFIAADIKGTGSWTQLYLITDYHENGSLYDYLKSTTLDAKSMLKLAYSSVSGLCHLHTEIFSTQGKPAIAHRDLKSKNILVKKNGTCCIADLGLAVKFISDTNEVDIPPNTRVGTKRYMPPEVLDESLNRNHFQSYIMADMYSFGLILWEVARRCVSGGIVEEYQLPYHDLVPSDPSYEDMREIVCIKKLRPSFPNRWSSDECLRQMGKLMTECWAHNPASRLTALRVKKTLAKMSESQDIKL
Sequence of ALK3 (P36894 24-532): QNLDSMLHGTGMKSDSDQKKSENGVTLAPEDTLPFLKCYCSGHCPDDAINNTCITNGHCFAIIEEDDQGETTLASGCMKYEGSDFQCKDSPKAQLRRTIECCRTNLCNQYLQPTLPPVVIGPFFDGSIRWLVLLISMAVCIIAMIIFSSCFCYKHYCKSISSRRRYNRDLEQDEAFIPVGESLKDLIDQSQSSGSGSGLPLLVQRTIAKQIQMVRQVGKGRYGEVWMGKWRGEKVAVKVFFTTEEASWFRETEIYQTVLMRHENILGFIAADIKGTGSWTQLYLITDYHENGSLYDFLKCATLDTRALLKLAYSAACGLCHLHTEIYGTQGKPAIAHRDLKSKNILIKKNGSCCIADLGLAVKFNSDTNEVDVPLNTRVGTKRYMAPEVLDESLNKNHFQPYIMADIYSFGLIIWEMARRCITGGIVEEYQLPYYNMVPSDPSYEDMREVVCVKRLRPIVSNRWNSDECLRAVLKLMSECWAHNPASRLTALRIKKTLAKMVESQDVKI

Consider `CS(=O)(=O)c1cccc(-c2cnn3cc(-c4ccc(C5CCNC5)cc4)cnc23)c1` (stereo not drawn) [Compound 129, 3-(3-(methylsulfonyl)phenyl)-6-(4-(pyrrolidin-3-yl)phenyl)pyrazolo[1,5-a]pyrimidine], for which the IC50 at ALK2 [1] is 580 nM and 152 nM; on ALK1, 490 nM; against ALK2 [2] it was 63 nM; on ALK3, over 10000 nM; against ALK4, over 10000 nM; at ALK5, over 10000 nM. Besides, the IC50 on ALK6 is over 10000 nM.

For `C[C@@H]1CNC[C@H](C)N1c1ccc(-c2cnc3c(-c4cc(C#N)cc(S(N)(=O)=O)c4)cnn3c2)cc1` [Compound 79, 3-cyano-5-(6-(4-((2R,6S)-2,6-dimethylpiperazin-1-yl)phenyl)pyrazolo[1,5-a]pyrimidin-3-yl)benzenesulfonamide], the IC50 at ALK2 [3] is 8930 nM; in [4], 10100 nM; on ALK1, 1200 nM; against ALK2 [2], 190 nM; on ALK3 it was over 10000 nM; against ALK4, over 10000 nM. Further, the IC50 against ALK5 and against ALK6 was over 10000 nM in each case.

Take `C[C@@H]1CNC[C@H](C)N1c1ccc(-c2cnc3c(-c4cccc(C(F)(F)F)c4)cnn3c2)cc1` [Compound 81, 6-(4-((2R,6S)-2,6-dimethylpiperazin-1-yl)phenyl)-3-(3-(trifluoromethyl)phenyl)pyrazolo[1,5-a]pyrimidine]: the IC50 is 27400 nM on ALK2 [3]; over 100000 nM in experiment [4]; 880 nM on ALK1; 170 nM against ALK2 [2]; over 10000 nM against ALK3; over 10000 nM against ALK4. Besides, the IC50 at ALK5 and at ALK6 was over 10000 nM throughout.

For the compound `CC(=O)c1cccc2c(-c3cnn4cc(-c5ccc(N6[C@H](C)CNC[C@@H]6C)cc5)cnc34)cccc12` [Compound 24, 1-(5-(6-(4-((2R,6S)-2,6-dimethylpiperazin-1-yl)phenyl)pyrazolo[1,5-a]pyrimidin-3-yl)naphthalen-1-yl)ethanone], the IC50 was determined as 333 nM at ALK2 [3]; 580 nM in experiment [4]; 107 nM at ALK1; 30 nM at ALK2 [2]; 59 nM against ALK3; 1450 nM on ALK4. The results for the IC50 at ALK5 and at ALK6 were 26900 nM and 300 nM, respectively.

Take `NC(=O)c1cccc2c(-c3cnn4cc(-c5ccc(N6CCNCC6)cc5)cnc34)cccc12` [Compound 6, 5-(6-(4-(piperazin-1-yl)phenyl)pyrazolo[1,5-a]pyrimidin-3-yl)-1-naphthamide]: the IC50 at ALK2 [3] is 21 nM; in [4] it was 764 nM; on ALK1 it was 31 nM; at ALK2 [2] it was 7 nM; at ALK3, 30 nM; against ALK4, 2690 nM. Further, the IC50 against ALK5 was found to be 11200 nM; at ALK6, 105 nM.

As for `CC(O)c1cccc(-c2cnn3cc(-c4ccc(C5CCNCC5)cc4)cnc23)c1` (stereo not drawn) [Compound 98, 1-(3-(6-(4-(piperidin-4-yl)phenyl)pyrazolo[1,5-a]pyrimidin-3-yl)phenyl)ethanol], the IC50 on ALK2 [3] is 668 nM; in experiment [4], 7000 nM; against ALK1, 310 nM; at ALK2 [2], 72 nM; at ALK3, 3300 nM; on ALK4 it was over 10000 nM. Also, the IC50 against ALK5 and against ALK6 was over 10000 nM each time.

`C[C@@H]1CNC[C@H](C)N1c1ccc(-c2cnc3c(-c4ccc(F)c(C#N)c4)cnn3c2)cc1` [Compound 84, 5-(6-(4-((2R,6S)-2,6-dimethylpiperazin-1-yl)phenyl)pyrazolo[1,5-a]pyrimidin-3-yl)-2-fluorobenzonitrile]: the IC50 on ALK2 [3] was 2080 nM; in [4], 10000 nM; on ALK1, 860 nM; on ALK2 [2] it was 120 nM; on ALK3 it was over 10000 nM; against ALK4 it was over 10000 nM. The IC50 on ALK5 and against ALK6 was over 10000 nM throughout.

As to `CC(C)(O)c1cccc(-c2cnn3cc(-c4ccc(C5CCNCC5)cc4)cnc23)c1` [Compound 100, 2-(3-(6-(4-(piperidin-4-yl)phenyl)pyrazolo[1,5-a]pyrimidin-3-yl)phenyl)propan-2-ol], the IC50 on ALK2 [3] is 477 nM; in [4], over 100000 nM; at ALK1 it was 120 nM; at ALK2 [2], 39 nM; against ALK3 it was 3300 nM; on ALK4 it was over 10000 nM. Besides, the IC50 at ALK5 and against ALK6 was over 10000 nM throughout.
